Consider 15 compounds from PubChem BioAssay AID280 (DTP/NCI, 2004).

Each structure is given as a SMILES string. Values joined by “and” are separate entries in the source; they are usually repeats but may differ in a detail not shown here. Equal values may be shown once. Inconclusive results and toxic doses are left out.

The test concerns nude mice, LOX melanoma ip, survival T/C. Briefly: NCI In Vivo Anticancer Drug Screen. Data for tumor model Human Amelanotic Melanoma (LOX) (intraperitoneal) in NU/NU BALB/C (nude) mice. The following applies: endpoint: median survival time, schedule: Q04DX003 (ip), higher = longer survival. How it is done: The antitumor activity of compounds was measured in mice bearing transplantable tumors. Survival or tumor size were measured and the results are expressed as the measurement made in the treated group (T) divided by the measurement made in the vehicle treated control group (C). The tumor model used in this assay is Human Amelanotic Melanoma (LOX) (intraperitoneal) in NU/NU BALB/C (nude) mice

[1] abbreviates: dose: 75.0 mg/kg/injection, vehicle: Klucel (hydroxypropylcellulose) (HPC).
Setting [2] is: dose: 600.0 mg/kg/injection, vehicle: Klucel (hydroxypropylcellulose) (HPC).
Where [3] appears, read: dose: 150.0 mg/kg/injection, vehicle: Klucel (hydroxypropylcellulose) (HPC).
The mark [4] stands for this setting: dose: 300.0 mg/kg/injection, vehicle: Klucel (hydroxypropylcellulose) (HPC).

For `NC(Cn1ccc(=O)c(O)c1)C(=O)O` (configuration not stated), the T/C (dose: 75.0 mg/kg/injection, vehicle: suspension in saline) was 105 % of control; the T/C (dose: 150.0 mg/kg/injection, vehicle: suspension in saline) is 105 % of control; the T/C (dose: 300.0 mg/kg/injection, vehicle: suspension in saline) was 109 % of control; the T/C (dose: 600.0 mg/kg/injection, vehicle: suspension in saline) is 100 % of control; the T/C (dose: 1200.0 mg/kg/injection, vehicle: suspension in saline) was 104 % of control.

Turning to `Cc1cc(Nc2ccc3c(c2)OCO3)c2cc3c(cc2n1)OCO3`, the T/C is 106 % of control under setting [1]; 152 % of control and 158 % of control under setting [2].

Regarding `O=c1[nH]cnc2c1cnn2CN1CCOCC1`, the T/C was 93 % of control (dose: 25.0 mg/kg/injection, vehicle: Klucel (hydroxypropylcellulose) (HPC)); 123 % of control (dose: 50.0 mg/kg/injection, vehicle: Klucel (hydroxypropylcellulose) (HPC)); 109 % of control (dose: 100.0 mg/kg/injection, vehicle: Klucel (hydroxypropylcellulose) (HPC)).

Turning to `COc1cc(C(CC(C)=O)c2cc3c(cc2OC(C)=O)OCO3)cc(OC)c1OC` (configuration not stated) (tested in a mixture with another compound), the T/C reads like this: (dose: 25.0 mg/kg/injection, vehicle: saline with Tween-80) 104 % of control; (dose: 50.0 mg/kg/injection, vehicle: saline with Tween-80) 106 % of control; (dose: 100.0 mg/kg/injection, vehicle: saline with Tween-80) 115 % of control; (dose: 200.0 mg/kg/injection, vehicle: saline with Tween-80) 120 % of control.

As for `COc1cc(NS(C)(=O)=O)ccc1Nc1c2ccccc2nc2ccccc12`, the T/C was 117 % of control (dose: 2.5 mg/kg/injection, vehicle: other) and 122 % of control (dose: 5.0 mg/kg/injection, vehicle: other).

Consider `C=C(c1ccc(OC)c(OC)c1)c1nccc2cc(OC)c(OC)cc12`, for which the T/C reads like this: under setting [1], 88 % of control; under setting [3], 99 % of control; under setting [4], 96 % of control.

Turning to `Cc1c2ccccc2c(C)c2c1cc(C(=O)O)c1ccccc12`, the T/C by setting is: (dose: 12.5 mg/kg/injection, vehicle: sodium bicarbonate) 115 % of control; (dose: 25.0 mg/kg/injection, vehicle: sodium bicarbonate) 118 % of control; (dose: 200.0 mg/kg/injection, vehicle: sodium bicarbonate) 167 % of control.

Turning to `Cc1cc(Br)c2nsnc2c1[N+](=O)[O-]`, the T/C reads like this: (dose: 75.0 mg/kg/injection, vehicle: saline with Tween-80) 112 % of control; (dose: 150.0 mg/kg/injection, vehicle: saline with Tween-80) 103 % of control; (dose: 300.0 mg/kg/injection, vehicle: saline with Tween-80) 112 % of control; (dose: 600.0 mg/kg/injection, vehicle: saline with Tween-80) 124 % of control; (dose: 1200.0 mg/kg/injection, vehicle: saline with Tween-80) 114 % of control.

Consider `COC(=O)c1ccc(N=NN(C)COC(C)=O)cc1`, for which the T/C (dose: 30.0 mg/kg/injection, vehicle: Klucel (hydroxypropylcellulose) (HPC)) was 118 % of control; the T/C (dose: 51.8 mg/kg/injection, vehicle: Klucel (hydroxypropylcellulose) (HPC)) is 175 % of control; the T/C (dose: 86.4 mg/kg/injection, vehicle: Klucel (hydroxypropylcellulose) (HPC)) was 193 % of control; the T/C (dose: 120.0 mg/kg/injection, vehicle: Klucel (hydroxypropylcellulose) (HPC)) is 193 % of control; the T/C (dose: 144.0 mg/kg/injection, vehicle: Klucel (hydroxypropylcellulose) (HPC)) is 262 % of control; the T/C (dose: 240.0 mg/kg/injection, vehicle: Klucel (hydroxypropylcellulose) (HPC)) is 220 % of control and 237 % of control.

Regarding `CCOC(=O)N(C)N=NC`, the T/C (dose: 7.5 mg/kg/injection, vehicle: saline) was 108 % of control and 109 % of control; the T/C (dose: 15.0 mg/kg/injection, vehicle: saline) is 107 % of control and 114 % of control (2×); the T/C (dose: 30.0 mg/kg/injection, vehicle: saline) is 121 % of control; the T/C (dose: 60.0 mg/kg/injection, vehicle: saline) is 194 % of control; the T/C (dose: 120.0 mg/kg/injection, vehicle: saline) was 172 % of control and 191 % of control and 205 % of control.

For `Cn1cc(C2NC(=O)c3ccccc3N2)c2ccccc21` (configuration not stated), the T/C under setting [1] was 110 % of control and 100 % of control; the T/C under setting [3] was 106 % of control and 122 % of control; the T/C under setting [4] is 110 % of control and 94 % of control.

With `C/C(=N\NC(=O)c1ccccc1O)c1cccc(/C(C)=N/NC(=O)c2ccccc2O)n1`, the T/C (dose: 50.0 mg/kg/injection, vehicle: saline) was 116 % of control and the T/C (dose: 100.0 mg/kg/injection, vehicle: saline) was 154 % of control.

With `NCc1cc(O)c(O)c(O)c1`, the T/C (dose: 75.0 mg/kg/injection, vehicle: saline) is 107 % of control; the T/C (dose: 150.0 mg/kg/injection, vehicle: saline) was 101 % of control; the T/C (dose: 600.0 mg/kg/injection, vehicle: saline) was 102 % of control.

Take `CN1CCN(CN2C(=O)C3C4C=CC(C3C2=O)C2C3C(=O)N(CN5CCN(C)CC5)C(=O)C3C42)CC1` (configuration not stated): the T/C is, setting by setting: (dose: 12.5 mg/kg/injection, vehicle: water) 104 % of control; (dose: 25.0 mg/kg/injection, vehicle: water) 109 % of control; (dose: 50.0 mg/kg/injection, vehicle: water) 110 % of control; (dose: 100.0 mg/kg/injection, vehicle: water) 106 % of control.

Regarding `COc1cc(C)c(C2NC(=O)c3ccccc3N2)cc1C` (configuration not stated), the T/C is, setting by setting: under setting [2], 166 % of control; (dose: 1200.0 mg/kg/injection, vehicle: Klucel (hydroxypropylcellulose) (HPC)) 192 % of control.
